Reference: patent US20020137929A1, “1 - (3-heterocyclylphenyl) isothiourea, -isourea, -guanidine and -amidine herbicidal agents” (Intellectual Property Department, BASF Aktiengesellschaft, priority 1998, published 2002)

Assays:
CYPIR (Rice Flatsedge) = experiment: Preemergence weed control under flooded paddy conditions; type: in vivo, Cyperus iria; details: rated 3-4 weeks after treatment
Outline: (§1)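 Flooded-pot preemergence screen with silt loam and seeds in the upper 0.5 cm. Dose about 0.0313 to 0.500 kg/ha, delivered into flood water; visual 0-9 score after 3 to 4 weeks.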

SETVI (Foxtail, Green) = experiment: Preemergence herbicidal evaluation; type: in vivo, Setaria viridis; details: rated 4-5 weeks after treatment, rating scale 0-9
Outline: (§2)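 Greenhouse preemergence test: seed-soil mix sown on ~1 inch soil; aqueous acetone spray at equivalent of ~0.0156–0.500 kg/ha; greenhouse-held and watered; scored 0–9 visually at 4–5 weeks.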

ECHCG (Barnyardgrass) = experiment: Postemergence herbicidal evaluation; type: in vivo, Echinochloa crus-galli; details: postemergence
Outline: (§3)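 Each compound, dispersed in an acetone/water mix (50/50) carrying 0.5% TWEEN 20, is nozzle-sprayed at 40 psi on approximately two-week-old seedlings at about 0.0156–0.500 kg/ha. Plants are assessed 4–5 weeks afterward on a 0–9 scale relative to control; duplicate tests are averaged.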

CASOB (Sicklepod) = experiment: Postemergence herbicidal evaluation; type: in vivo, Cassia obtusifolia; details: postemergence
Outline: as §3

[1] = test system: CHEAL (Lambsquarters, Common); experiment: Postemergence herbicidal evaluation; type: in vivo, Chenopodium album; details: postemergence
Outline: as §3

[2] = test system: GLXMAW (Soybean, Williams); experiment: Preemergence herbicidal evaluation; type: in vivo, Glycine max, (L.) Merr. cv Williams; details: rated 4-5 weeks after treatment, rating scale 0-9
Outline: as §2

ZEAMX (Corn, Field) = experiment: Preemergence herbicidal evaluation; type: in vivo, Zea mays; details: rated 4-5 weeks after treatment, rating scale 0-9
Description: (§4) Results of herbicide evaluation are expressed on a rating scale (0-9). The scale is based upon a visual observation of plant stand, vigor, malformation, size, chlorosis and overall plant appearance as compared with a control.
(§5) The preemergence herbicidal activity of the test compounds of the present invention is exemplified by the following tests in which the seeds of a variety of monocotyledonous and dicotyledonous plants are separately mixed with potting soil and planted on top of approximately one inch of soil in separate pint cups. After planting, the cups are sprayed with the selected aqueous acetone solution containing test compound in sufficient quantity to provide the equivalent of about 0.0156 to 0.500 kg per hectare of test compound per cup. The treated cups are then placed on greenhouse benches, watered and cared for in accordance with conventional greenhouse procedures. From four to five weeks after treatment, the tests are terminated and each cup is examined and rated according to the rating system provided in Example 37.
(§6) The compounds evaluated are reported by compound number given in Example 37.

MOOVA (Monochoria) = experiment: Preemergence weed control under flooded paddy conditions; type: in vivo, Monochoria vaginalis; details: rated 3-4 weeks after treatment
Outline: as §1

[3] = test system: SAGPY (Arrowhead (Pygmaea)); experiment: as above; type: in vivo, Sagittaria pygmaea; details: rated 3-4 weeks after treatment
Outline: as §1

ORYSAT (Rice, Tebonnet) [4] = experiment: Postemergence herbicidal evaluation; type: in vivo, Oryza sativa, (L.) Tebonnet; details: postemergence
Outline: as §3

[5] = test system: TRZAWR (Wheat, Winter, cv Riband); experiment: Preemergence herbicidal evaluation; type: in vivo, Triticum aestivum; details: rated 4-5 weeks after treatment, rating scale 0-9
Description: as §4, §5, §6

ORYSAT (Rice, Tebonnet) [6] = experiment: Preemergence herbicidal evaluation; type: in vivo, Oryza sativa, (L.) Tebonnet; details: rated 4-5 weeks after treatment, rating scale 0-9
Outline: as §2

GALAP (Galium) = experiment: Preemergence herbicidal evaluation; type: in vivo, Galium aparine; details: rated 4-5 weeks after treatment, rating scale 0-9
Outline: as §2

## Cc1ccc(CN2C(=O)CSC2=Nc2cc(-n3c(=O)cc(C(F)(F)F)n(C)c3=O)c(F)cc2Cl)cc1C [Compound 147, 3-{4-Chloro-5-{[3-(3,4-dimethylbenzyl)-4-oxo-2-thiazolidinylidene]amino}-2-fluorophenyl}-1-methyl-6-(trifluoromethyl)-2,4(1H,3H)-pyrimidinedione]
CYPIR (Rice Flatsedge); 0.0313 kg/ha
  herbicidal effect rating, CYPIR: 4.0
CYPIR (Rice Flatsedge); 0.0625 kg/ha
  herbicidal effect rating, CYPIR: 4.0
CYPIR (Rice Flatsedge); 0.1250 kg/ha
  herbicidal effect rating, CYPIR: 7.0
CYPIR (Rice Flatsedge); 0.2500 kg/ha
  herbicidal effect rating, CYPIR: 7.0
SETVI (Foxtail, Green); rate 0.0156 kg/ha
  Preemergence herbicidal rating SETVI: 1.0
SETVI (Foxtail, Green); rate 0.0313 kg/ha
  Preemergence herbicidal rating SETVI: 0.0
SETVI (Foxtail, Green); rate 0.0625 kg/ha
  Preemergence herbicidal rating SETVI: 0.0
SETVI (Foxtail, Green); rate 0.1250 kg/ha
  Preemergence herbicidal rating SETVI: 1.0
SETVI (Foxtail, Green); rate 0.2500 kg/ha
  Preemergence herbicidal rating SETVI: 4.0
ECHCG (Barnyardgrass); rate 0.0156 kg/ha
  herbicidal rating ECHCG: 1.0
ECHCG (Barnyardgrass); rate 0.0313 kg/ha
  herbicidal rating ECHCG: 2.0
ECHCG (Barnyardgrass); rate 0.0625 kg/ha
  herbicidal rating ECHCG: 1.0
CASOB (Sicklepod); rate 0.0156 kg/ha
  herbicidal rating CASOB: 1.0
CASOB (Sicklepod); rate 0.0313 kg/ha
  herbicidal rating CASOB: 1.0
CASOB (Sicklepod); rate 0.0625 kg/ha
  herbicidal rating CASOB: 2.0
[1]; rate 0.0156 kg/ha
  herbicidal rating CHEAL: 5.0
[1]; rate 0.0313 kg/ha
  herbicidal rating CHEAL: 6.0
[1]; rate 0.0625 kg/ha
  herbicidal rating CHEAL: 9.0
[2]; rate 0.0156 kg/ha
  Preemergence herbicidal rating GLXMAW: 1.0
[2]; rate 0.0313 kg/ha
  Preemergence herbicidal rating GLXMAW: 0.0
[2]; rate 0.0625 kg/ha
  Preemergence herbicidal rating GLXMAW: 0.0
[2]; rate 0.1250 kg/ha
  Preemergence herbicidal rating GLXMAW: 0.0
[2]; rate 0.2500 kg/ha
  Preemergence herbicidal rating GLXMAW: 1.0
ZEAMX (Corn, Field); rate 0.0156 kg/ha
  Preemergence herbicidal rating ZEAMX: 1.0
ZEAMX (Corn, Field); rate 0.0313 kg/ha
  Preemergence herbicidal rating ZEAMX: 1.0
ZEAMX (Corn, Field); rate 0.0625 kg/ha
  Preemergence herbicidal rating ZEAMX: 0.0
ZEAMX (Corn, Field); rate 0.1250 kg/ha
  Preemergence herbicidal rating ZEAMX: 1.0
ZEAMX (Corn, Field); rate 0.2500 kg/ha
  Preemergence herbicidal rating ZEAMX: 2.0
MOOVA (Monochoria); 0.0313 kg/ha
  herbicidal effect rating, MOOVA: 7.0
MOOVA (Monochoria); 0.0625 kg/ha
  herbicidal effect rating, MOOVA: 9.0
MOOVA (Monochoria); 0.1250 kg/ha
  herbicidal effect rating, MOOVA: 9.0
MOOVA (Monochoria); 0.2500 kg/ha
  herbicidal effect rating, MOOVA: 9.0
[3]; 0.0313 kg/ha
  herbicidal effect rating, SAGPY: 0.0
[3]; 0.0625 kg/ha
  herbicidal effect rating, SAGPY: 0.0
[3]; 0.1250 kg/ha
  herbicidal effect rating, SAGPY: 0.0
[3]; 0.2500 kg/ha
  herbicidal effect rating, SAGPY: 2.0
ORYSAT (Rice, Tebonnet) [4]; rate 0.0156 kg/ha
  herbicidal rating ORYSAT: 1.5
ORYSAT (Rice, Tebonnet) [4]; rate 0.0313 kg/ha
  herbicidal rating ORYSAT: 2.5
ORYSAT (Rice, Tebonnet) [4]; rate 0.0625 kg/ha
  herbicidal rating ORYSAT: 3.5
[5]; rate 0.0156 kg/ha
  Preemergence herbicidal rating TRZAWR: 0.0
[5]; rate 0.0313 kg/ha
  Preemergence herbicidal rating TRZAWR: 0.0
[5]; rate 0.0625 kg/ha
  Preemergence herbicidal rating TRZAWR: 0.0
[5]; rate 0.1250 kg/ha
  Preemergence herbicidal rating TRZAWR: 0.0
[5]; rate 0.2500 kg/ha
  Preemergence herbicidal rating TRZAWR: 0.0
ORYSAT (Rice, Tebonnet) [6]; rate 0.0156 kg/ha
  Preemergence herbicidal rating ORYSAT: 0.0
ORYSAT (Rice, Tebonnet) [6]; rate 0.0313 kg/ha
  Preemergence herbicidal rating ORYSAT: 0.0
ORYSAT (Rice, Tebonnet) [6]; rate 0.0625 kg/ha
  Preemergence herbicidal rating ORYSAT: 0.0
ORYSAT (Rice, Tebonnet) [6]; rate 0.1250 kg/ha
  Preemergence herbicidal rating ORYSAT: 0.0
ORYSAT (Rice, Tebonnet) [6]; rate 0.2500 kg/ha
  Preemergence herbicidal rating ORYSAT: 0.0
GALAP (Galium); rate 0.0156 kg/ha
  Preemergence herbicidal rating GALAP: 0.0
GALAP (Galium); rate 0.0313 kg/ha
  Preemergence herbicidal rating GALAP: 0.0
GALAP (Galium); rate 0.0625 kg/ha
  Preemergence herbicidal rating GALAP: 0.0
GALAP (Galium); rate 0.1250 kg/ha
  Preemergence herbicidal rating GALAP: 1.0
GALAP (Galium); rate 0.2500 kg/ha
  Preemergence herbicidal rating GALAP: 1.0
